pIC50: −log10 of the molar value. Like-named read-outs stand apart in the source and are kept apart here.
Tests used:
Type in all cases: biochemical
CDK2/CCNE1 = CDK2/CCNE1 (Homo sapiens, UniProt P24941); assay: CDK2 homogeneous time-resolved fluorescence (HTRF) kinase assay
Procedure, shortened: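 CDK2/CCNE1 (3 nM) preincubated 20 min at 23 °C with compound, then reacted 60 min at 23 °C with 1 mM ATP and 50 nM ULight-4E-BP1 (Thr37/46) peptide. Stopped with EDTA, phospho-peptide detected by Eu-anti-phospho antibody (665 nm or 665/615 ratio). IC50 from 11-point half-log titrations typically starting at 10 μM.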

CDK1/CCNB1 = CDK1/CCNB1 (Homo sapiens, UniProt P06493); assay: CDK1 homogeneous time-resolved fluorescence (HTRF) kinase assay
Procedure, shortened: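 Kinase activity is measured as Lance signal (665 nm, or 665/615 nm ratio) from europium-labelled anti-phospho-Thr37/46 antibody binding ULight-4E-BP1 peptide. Reactions contain 0.5 nM enzyme, 1 mM ATP, 1% DMSO and run 60 min at 23 °C before EDTA quench.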

CDK4/CCND3 = CDK4/CCND3 (Homo sapiens, UniProt P11802); assay: CDK4 homogeneous time-resolved fluorescence (HTRF) kinase assay
Procedure, shortened: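 CDK4/CCND3 at 1.5 nM was preincubated with compound for 20 min at 23 °C, then reacted for 60 min with 1 mM ATP and 50 nM ULight-4E-BP1 (Thr37/46) peptide. The reaction was stopped with EDTA, and phosphorylation was read by HTRF with a Eu-anti-phospho antibody. IC50 values came from 11-point half-log titrations, typically from 10 μM.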

CDK6/CCND1 = CDK6/CCND1 (Homo sapiens, UniProt Q00534); assay: CDK6 homogeneous time-resolved fluorescence (HTRF) kinase assay
Procedure, shortened: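 Enzyme pre-incubated 20 min at 23 °C with compound, then reacted 60 min at 23 °C with 1 mM ATP and 50 nM ULight-4E-BP1 (Thr37/46) peptide; 1 nM enzyme, 1% DMSO. EDTA-stopped, Eu-anti-phospho antibody TR-FRET read (665 nm or 665/615 ratio); 11-point half-log titration from 10 μM gave IC50.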

[1] = CDK2/CCNE, x = IC50 25-250 nM, read-out: CDK2/CCNE IC50 (25-250 nM)
[2] = CDK1/CCNB, x = IC50 >250 nM, read-out: CDK1/CCNB IC50 (>250 nM column)
[3] = CDK4/CCND, x = IC50 >250 nM, read-out: CDK4/CCND IC50 (>250 nM column)
[4] = CDK6/CCND, x = IC50 >250 nM, read-out: CDK6/CCND IC50 (>250 nM column)
[5] = CDK2/CCNE, x = IC50 <25 nM, read-out: CDK2/CCNE IC50 (<25 nM)
[6] = CDK1/CCNB, x = IC50 25-250 nM, read-out: CDK1/CCNB IC50 (25-250 nM)
[7] = <25 nM, CDK2/CCNE, read-out: CDK2/CCNE IC50, <25 nM
[8] = >250 nM, CDK1/CCNB, read-out: CDK1/CCNB IC50 >250 nM
[9] = >250 nM, CDK4/CCND, read-out: CDK4/CCND IC50, >250 nM
[10] = >250 nM, CDK6/CCND, 1 mM ATP, read-out: CDK6/CCND IC50, >250 nM
[11] = CDK4/CCND, 25-250 nM marked x, read-out: CDK4/CCND IC50 25-250 nM
[12] = CDK6/CCND, 25-250 nM marked x, read-out: CDK6/CCND IC50 25-250 nM
[13] = 25-250 nM, CDK2/CCNE, read-out: CDK2/CCNE IC50, 25-250 nM

CDK1/CCNB1, sequence (P06493 whole entry): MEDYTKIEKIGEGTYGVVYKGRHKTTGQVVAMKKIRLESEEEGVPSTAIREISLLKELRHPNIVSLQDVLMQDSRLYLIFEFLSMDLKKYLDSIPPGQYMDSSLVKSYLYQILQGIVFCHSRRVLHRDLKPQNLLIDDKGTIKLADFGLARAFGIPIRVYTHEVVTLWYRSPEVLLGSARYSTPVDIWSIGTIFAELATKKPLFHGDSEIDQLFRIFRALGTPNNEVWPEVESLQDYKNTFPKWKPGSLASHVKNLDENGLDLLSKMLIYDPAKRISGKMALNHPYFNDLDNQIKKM
CDK1/CCNB1, sequence (P14635 whole entry partner): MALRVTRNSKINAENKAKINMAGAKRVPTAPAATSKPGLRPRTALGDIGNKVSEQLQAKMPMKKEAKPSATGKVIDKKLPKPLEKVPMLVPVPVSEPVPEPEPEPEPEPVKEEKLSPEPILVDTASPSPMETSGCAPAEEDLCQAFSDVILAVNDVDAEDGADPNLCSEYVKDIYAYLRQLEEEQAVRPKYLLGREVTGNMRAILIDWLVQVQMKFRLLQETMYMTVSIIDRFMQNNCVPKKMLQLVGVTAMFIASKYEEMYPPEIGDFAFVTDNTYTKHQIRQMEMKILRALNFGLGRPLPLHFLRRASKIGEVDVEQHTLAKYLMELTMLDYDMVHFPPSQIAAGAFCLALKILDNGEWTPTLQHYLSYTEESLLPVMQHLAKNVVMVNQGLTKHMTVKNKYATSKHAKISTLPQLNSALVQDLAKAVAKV
CDK4/CCND3, sequence (P11802 whole entry): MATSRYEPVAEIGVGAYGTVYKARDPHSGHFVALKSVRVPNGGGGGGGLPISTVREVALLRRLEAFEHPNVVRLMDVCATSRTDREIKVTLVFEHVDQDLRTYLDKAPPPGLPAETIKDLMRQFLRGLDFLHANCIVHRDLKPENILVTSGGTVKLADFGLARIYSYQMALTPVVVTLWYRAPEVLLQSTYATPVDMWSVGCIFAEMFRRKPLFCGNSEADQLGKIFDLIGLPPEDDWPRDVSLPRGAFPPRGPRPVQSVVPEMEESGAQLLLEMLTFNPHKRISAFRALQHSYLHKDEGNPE
CDK4/CCND3, sequence (P30281 whole entry partner): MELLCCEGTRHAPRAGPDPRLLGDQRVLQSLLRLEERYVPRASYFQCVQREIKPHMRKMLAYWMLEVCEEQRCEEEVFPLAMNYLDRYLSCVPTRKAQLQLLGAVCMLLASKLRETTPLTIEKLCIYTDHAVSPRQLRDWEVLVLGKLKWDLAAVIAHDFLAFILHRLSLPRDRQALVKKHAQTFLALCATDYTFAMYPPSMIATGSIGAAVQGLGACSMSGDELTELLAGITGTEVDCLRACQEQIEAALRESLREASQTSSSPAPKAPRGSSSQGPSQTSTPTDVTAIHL
CDK6/CCND1, sequence (Q00534 whole entry): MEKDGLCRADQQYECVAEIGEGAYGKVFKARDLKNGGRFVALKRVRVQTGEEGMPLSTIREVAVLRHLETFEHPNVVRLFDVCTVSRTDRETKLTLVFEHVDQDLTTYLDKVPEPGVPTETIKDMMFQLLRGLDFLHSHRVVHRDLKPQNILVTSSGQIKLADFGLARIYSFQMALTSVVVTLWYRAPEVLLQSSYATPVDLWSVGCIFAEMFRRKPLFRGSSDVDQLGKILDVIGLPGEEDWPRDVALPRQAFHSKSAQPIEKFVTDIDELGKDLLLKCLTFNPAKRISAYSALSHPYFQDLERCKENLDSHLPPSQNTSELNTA
CDK6/CCND1, sequence (P24385 whole entry partner): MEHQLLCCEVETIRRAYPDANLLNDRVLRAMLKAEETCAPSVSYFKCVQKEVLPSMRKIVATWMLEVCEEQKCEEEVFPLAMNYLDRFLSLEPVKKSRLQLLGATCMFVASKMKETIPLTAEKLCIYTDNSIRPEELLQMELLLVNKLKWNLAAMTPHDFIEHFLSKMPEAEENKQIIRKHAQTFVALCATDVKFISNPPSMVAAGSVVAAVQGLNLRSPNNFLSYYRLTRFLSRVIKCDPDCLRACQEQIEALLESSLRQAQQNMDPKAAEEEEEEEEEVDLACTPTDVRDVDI

pIC50 (CDK1/CCNB1; [2])	pIC50 (CDK4/CCND3; [3])	pIC50 (CDK6/CCND1; [4])	pIC50 (CDK1/CCNB1; [8])	pIC50 (CDK4/CCND3; [9])	pIC50 (CDK6/CCND1; [10])	Compound	other results
						CS(=O)(=O)c1ccc(Nc2cc3c(C4=CCCCC4)ncnc3cn2)cc1 [Example 950, 4-(cyclohex-1-en-1-yl)-N-(4-(methylsulfonyl)phenyl)pyrido[3,4-d]pyrimidin-6-amine]	pIC50 (CDK2/CCNE1; 3 nM CDK2/CCNE1, 1 mM ATP, read-out: CDK2/CCNE IC50 25-250 nM): 6.60 to 7.60; pIC50 (CDK1/CCNB1; 0.5 nM CDK1/CCNB1, 1 mM ATP, read-out: CDK1/CCNB IC50 >250 nM): < 6.60; pIC50 (CDK4/CCND3; 1.5 nM CDK4/CCND3, 1 mM ATP, read-out: CDK4/CCND IC50 >250 nM): < 6.60; pIC50 (CDK6/CCND1; 1 nM CDK6/CCND1, 1 mM ATP, read-out: CDK6/CCND IC50 >250 nM): < 6.60
< 6.60	< 6.60	< 6.60				CS(=O)(=O)c1ccc(Nc2cc3c(C#Cc4ccc(CC#N)cc4)nccc3cn2)cc1 [Ex 620, 2-(4-((7-((4-(methylsulfonyl)phenyl)amino)-2,6-naphthyridin-1-yl)ethynyl)phenyl)acetonitrile]	pIC50 (CDK2/CCNE1; [1]): 6.60 to 7.60
< 6.60	< 6.60	< 6.60				CS(=O)(=O)c1ccc(Nc2cc3c(C#Cc4cc(N)n[nH]4)nccc3cn2)cc1 [Ex 559, 5-((3-amino-1H-pyrazol-5-yl)ethynyl)-N-(4-(methylsulfonyl)phenyl)-2,6-naphthyridin-3-amine]	pIC50 (CDK2/CCNE1; [1]): 6.60 to 7.60
< 6.60	< 6.60	< 6.60				CC(C)S(=O)(=O)c1ccc(Nc2cc3c(C#Cc4cccnc4N)nccc3cn2)cc1 [Ex 400, 5-((2-aminopyridin-3-yl)ethynyl)-N-(4-(isopropylsulfonyl)phenyl)-2,6-naphthyridin-3-amine]	pIC50 (CDK2/CCNE1; [1]): 6.60 to 7.60
		< 6.60				CC1(C)C(=O)Nc2cc(C#Cc3nccc4cnc(Nc5ccc(S(C)(=N)=O)cc5)cc34)ccc21 (single isomer, unassigned) [Ex 451, 3,3-dimethyl-6-((7-((4-(S-methylsulfonimidoyl)phenyl)amino)-2,6-naphthyridin-1-yl)ethynyl)indolin-2-one]	pIC50 (CDK2/CCNE1; [5]): > 7.60; pIC50 (CDK1/CCNB1; [6]): 6.60 to 7.60; pIC50 (CDK4/CCND3; CDK4/CCND, x = IC50 25-250 nM, read-out: CDK4/CCND IC50 (25-250 nM)): 6.60 to 7.60
< 6.60	< 6.60					CC(C)(O)CN1CCc2cc(-c3nccc4cnc(Nc5ccc(S(C)(=O)=O)cc5)cc34)ccc2C1 [Example 629, 2-Methyl-1-(6-(7-((4-(methylsulfonyl)phenyl)amino)-2,6-naphthyridin-1-yl)-3,4-dihydroisoquinolin-2(1H)-yl)propan-2-ol]	pIC50 (CDK2/CCNE1; [5]): > 7.60; pIC50 (CDK6/CCND1; CDK6/CCND, x = IC50 25-250 nM, read-out: CDK6/CCND IC50 (25-250 nM)): 6.60 to 7.60
	< 6.60	< 6.60				CNS(=O)(=O)c1ccc(Nc2cc3c(C#Cc4cccnc4N)nccc3cn2)c(F)c1 [Ex 467, 4-((5-((2-aminopyridin-3-yl)ethynyl)-2,6-naphthyridin-3-yl)amino)-3-fluoro-N-methylbenzenesulfonamide]	pIC50 (CDK2/CCNE1; [5]): > 7.60; pIC50 (CDK1/CCNB1; [6]): 6.60 to 7.60
			< 6.60	< 6.60	< 6.60	COc1cnc(NS(=O)(=O)c2ccc(Nc3cc4c(-c5ccc6c(cnn6CC(O)(C(F)(F)F)C(F)(F)F)c5C)nccc4cn3)cc2)nc1N1CCOCC1 [Ex 702, N-(5-methoxy-4-morpholinopyrimidin-2-yl)-4-((5-(4-methyl-1-(3,3,3-trifluoro-2-hydroxy-2-(trifluoromethyl)propyl)-1H-indazol-5-yl)-2,6-naphthyridin-3-yl)amino)benzenesulfonamide]	pIC50 (CDK2/CCNE1; [7]): > 7.60
						CS(=O)(=O)N1CCC(Nc2cc3c(N4CC5(CC(O)C5)C4)nccc3cn2)CC1 [Ex 36, 2-(7-((1-(methylsulfonyl)piperidin-4-yl)amino)-2,6-naphthyridin-1-yl)-2-azaspiro[3.3]heptan-6-ol]	pIC50 (CDK2/CCNE1; CDK2/CCNE, <25 nM, read-out: CDK2/CCNE IC50 <25 nM): > 7.60; pIC50 (CDK1/CCNB1; CDK1/CCNB, 25-250 nM marked x, read-out: CDK1/CCNB IC50 25-250 nM): 6.60 to 7.60; pIC50 (CDK4/CCND3; [11]): 6.60 to 7.60; pIC50 (CDK6/CCND1; [12]): 6.60 to 7.60
			< 6.60	< 6.60	< 6.60	Cc1c(-c2nccc3cnc(Nc4ccc(NS(=O)(=O)c5nccs5)cc4)cc23)ccc2c1cnn2CC(C)(C)O [Ex 748, N-(4-((5-(1-(2-hydroxy-2-methylpropyl)-4-methyl-1H-indazol-5-yl)-2,6-naphthyridin-3-yl)amino)phenyl)thiazole-2-sulfonamide]	pIC50 (CDK2/CCNE1; [7]): > 7.60
< 6.60	< 6.60	< 6.60				CS(=O)(=O)c1ccc(Nc2cc3c(C#Cc4ccc5c(c4)NC(=O)C54CCC4)nccc3cn2)cc1 [Ex 460, 6'-((7-((4-(methylsulfonyl)phenyl)amino)-2,6-naphthyridin-1-yl)ethynyl)spiro[cyclobutane-1,3'-indolin]-2'-one]	pIC50 (CDK2/CCNE1; [5]): > 7.60
< 6.60	< 6.60	< 6.60				COc1cnc(C#Cc2nccc3cnc(Nc4ccc(S(C)(=O)=O)cc4)cc23)nc1 [Example 513, 5-((5-methoxypyrimidin-2-yl)ethynyl)-N-(4-(methylsulfonyl)phenyl)-2,6-naphthyridin-3-amine]	pIC50 (CDK2/CCNE1; CDK2/CCNE, x = IC50 >250 nM, read-out: CDK2/CCNE IC50 (>250 nM column)): < 6.60
			< 6.60	< 6.60	< 6.60	N#Cc1ccc(C#Cc2nccc3cnc(Nc4ccc(S(=O)(=O)N5CCOCC5)cc4)cc23)cc1 [Ex 934, 4-((7-((4-(morpholinosulfonyl)phenyl)amino)-2,6-naphthyridin-1-yl)ethynyl)benzonitrile]	pIC50 (CDK2/CCNE1; [13]): 6.60 to 7.60
			< 6.60	< 6.60	< 6.60	C[C@@H]1CN(c2cc(Nc3cc4c(C#Cc5ccc(=O)[nH]n5)nccc4cn3)cnc2O)CCN1C [Ex 853, (R)-6-((7-((5-(3,4-dimethylpiperazin-1-yl)-6-hydroxypyridin-3-yl)amino)-2,6-naphthyridin-1-yl)ethynyl)pyridazin-3(2H)-one absolute]	pIC50 (CDK2/CCNE1; [13]): 6.60 to 7.60
			< 6.60	< 6.60	< 6.60	Cc1c(-c2nccc3cnc(Nc4ccc(S(=O)(=O)Nc5cccc(N6CCOCC6)c5)cc4)cc23)ccc2c1cnn2CC(O)(C(F)(F)F)C(F)(F)F [Ex 738, 4-((5-(4-methyl-1-(3,3,3-trifluoro-2-hydroxy-2-(trifluoromethyl)propyl)-1H-indazol-5-yl)-2,6-naphthyridin-3-yl)amino)-N-(3-morpholinophenyl)benzenesulfonamide]	pIC50 (CDK2/CCNE1; [13]): 6.60 to 7.60
						C=CS(=O)(=O)N1CCC(Nc2cc3c(N4CCC(C5CCN(C)CC5)CC4)nccc3cn2)CC1 [Ex 103, 5-(1'-methyl-[4,4'-bipiperidin]-1-yl)-N-(1-(vinylsulfonyl)piperidin-4-yl)-2,6-naphthyridin-3-amine]	pIC50 (CDK2/CCNE1; CDK2/CCNE, 25-250 nM marked x, read-out: CDK2/CCNE IC50 25-250 nM): 6.60 to 7.60; pIC50 (CDK1/CCNB1; CDK1/CCNB, >250 nM marked x, read-out: CDK1/CCNB IC50 >250 nM): < 6.60; pIC50 (CDK4/CCND3; [11]): 6.60 to 7.60; pIC50 (CDK6/CCND1; [12]): 6.60 to 7.60
			< 6.60	< 6.60	< 6.60	Cc1ccccc1NS(=O)(=O)c1ccc(Nc2cc3c(-c4ccc5c(cnn5CC(O)(C(F)(F)F)C(F)(F)F)c4C)nccc3cn2)cc1 [Ex 715, 4-((5-(4-methyl-1-(3,3,3-trifluoro-2-hydroxy-2-(trifluoromethyl)propyl)-1H-indazol-5-yl)-2,6-naphthyridin-3-yl)amino)-N-(o-tolyl)benzenesulfonamide]	pIC50 (CDK2/CCNE1; >250 nM, CDK2/CCNE, read-out: CDK2/CCNE IC50, >250 nM): < 6.60
< 6.60	< 6.60	< 6.60				CC(C)S(=O)(=O)c1ccc(Nc2cc3c(C#Cc4ccc5c(c4)NC(=O)C54CCC4)nccc3cn2)cc1 [Ex 386, 6'-((7-((4-(isopropylsulfonyl)phenyl)amino)-2,6-naphthyridin-1-yl)ethynyl)spiro[cyclobutane-1,3'-indolin]-2'-one]	pIC50 (CDK2/CCNE1; [5]): > 7.60

Reference: patent US20260325533A1, “CDK INHIBITOR COMPOUNDS” (ALEKSIA THERAPEUTICS, INC., priority 2023, published 2026)
